Measured values as given in the supplement of paper PMC10307832.

What was measured:
Test in all cases: relative viability (nuclei count vs DMSO), 5 days (fraction); higher = more cells survive
[1] = compound: Cc1cc([C@@H](C)Nc2ccccc2C(=O)O)c2nc(N3CCOCC3)cc(=O)n2c1 [AZD6482] + O=C(CCCCCCC(=O)Nc1ccccc1)NO [Vorinostat] (partner 1 µM)
In short: (§1)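 Relative viability was taken as the ratio of nuclei in treated wells to nuclei in vehicle wells. Lung cancer cell lines in 1536-well plates received compounds by pin tool one day after seeding, either one drug alone or a fixed anchor-drug dose plus five library-drug doses (not always all listed) in √10 steps. Nuclei were counted on 4× images after 5 days of treatment, and values are medians of duplicate plates.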

[2] = compound: Cc1cc([C@@H](C)Nc2ccccc2C(=O)O)c2nc(N3CCOCC3)cc(=O)n2c1 [AZD6482] + Cc1nc(NC(=O)N2CCC[C@H]2C(N)=O)sc1-c1ccnc(C(C)(C)C(F)(F)F)c1 [Alpelisib] (partner 2 µM)
In short: as §1

[3] = compound: Cc1cc([C@@H](C)Nc2ccccc2C(=O)O)c2nc(N3CCOCC3)cc(=O)n2c1 [AZD6482] + COc1cccc2cc(-c3nc([C@H]4CC[C@H](C(=O)O)CC4)n4ncnc(N)c34)[nH]c12 [OSI-027] (partner 0.5 µM)
In short: as §1

[4] = compound: COc1cc2nc(N3CCCN(C)CC3)nc(NC3CCN(Cc4ccccc4)CC3)c2cc1OC + Cc1nc(Nc2ncc(C(=O)Nc3c(C)cccc3Cl)s2)cc(N2CCN(CCO)CC2)n1 [Dasatinib] (partner 0.075 µM)
In short: as §1

| Cell Line | relative viability ([1]; first compound 0.08 µM) | relative viability ([1]; first compound 0.253 µM) | relative viability ([1]; first compound 0.8 µM) | relative viability ([1]; first compound 2.53 µM) | relative viability ([1]; first compound 8 µM) | relative viability ([2]; first compound 0.08 µM) | relative viability ([2]; first compound 0.253 µM) | relative viability ([2]; first compound 0.8 µM) | relative viability ([2]; first compound 2.53 µM) | relative viability ([2]; first compound 8 µM) | relative viability ([3]; first compound 0.08 µM) | relative viability ([3]; first compound 0.253 µM) | relative viability ([3]; first compound 0.8 µM) | relative viability ([3]; first compound 2.53 µM) | relative viability ([3]; first compound 8 µM) | relative viability ([4]; first compound 0.2 µM) | relative viability ([4]; first compound 0.6325 µM) | relative viability ([4]; first compound 2 µM) | relative viability ([4]; first compound 6.325 µM) |
| --- | --- | --- | --- | --- | --- | --- | --- | --- | --- | --- | --- | --- | --- | --- | --- | --- | --- | --- | --- |
| HCC-44 | 1.08 | 1.17 | 1.28 | 1.29 | 1.21 | 0.546 | 0.596 | 0.649 | 0.505 | 0.435 | 0.46 | 0.511 | 0.574 | 0.37 | 0.296 | – | – | – | – |
| A549 | – | – | – | – | – | 0.585 | 0.552 | 0.43 | 0.275 | 0.361 | – | – | – | – | – | – | – | – | – |
| NCI-H1563 | – | – | – | – | – | 0.753 | 0.703 | 0.672 | 0.661 | 0.688 | 0.771 | 0.749 | 0.738 | 0.7 | 0.619 | 0.469 | 0.467 | 0.441 | 0.421 |
| NCI-H522 | 0.818 | 0.896 | 0.805 | 0.829 | 0.759 | – | – | – | – | – | 0.599 | 0.784 | 0.635 | 0.688 | 0.54 | 0.963 | 1.15 | 1.02 | 0.92 |
| IA-LM | 0.858 | 0.906 | 1.03 | – | 0.854 | 0.638 | 0.585 | 0.631 | 0.313 | 0.809 | – | – | – | – | – | – | – | – | – |
| NCI-H1703 | – | – | – | – | – | 0.273 | 0.179 | 0.194 | 0.167 | 0.231 | – | – | – | – | – | – | – | – | – |
| SW 900 | 0.38 | 0.357 | 0.528 | 0.328 | 0.402 | – | – | – | – | – | 0.45 | 0.471 | 0.433 | – | 0.492 | 0.411 | 0.578 | 0.654 | 0.498 |
